This is an account of results in patent publication US11976054B2, “Amide derivative and preparation method therefore and use thereof in medicine” (Chengdu Baiyu Pharmaceutical Co., Ltd., priority 2019, dated 2024).

Data set [1] deals with IL-1β release in human PBMCs. The data set can be described thus: Assay of IL-1β release in human PBMCs. The class given is cell-based. The following applies: 10 ng/mL LPS 3 h, compound 0.5 h, 5 mM ATP 1 h, ELISA. On the procedure: 5 mL of human venous whole blood from a healthy donor was placed in a Li-heparin tube. PBMCs were isolated and incubated in a culture medium containing 10 ng/mL LPS at 37° C./5% CO2 for 3 h. Cells were plated in a 96-well plate at 50 μL per well. 25 μL of compound or solvent control was added to each well and 3-fold diluted in gradient from a maximum concentration of 10 μM, and 8 gradient concentrations were set. The mixtures were incubated for 0.5 h. 25 μL of ATP at a final concentration of 5 mM was added to each well, and the resulting mixtures were incubated for 1 h. After the incubation, the mixtures were centrifuged at 1500 rpm for 20 min, and the supernatant was collected to detect the expression level of […] by ELISA (BD, Human IL-1β ELISA Set II, Cat #557953). IC50 was calculated using GraphPad Prism7.0 software. The results are shown in Table 2, which indicate that: the compounds disclosed herein down-regulate release of mature IL-1β by inhibiting the activity of Caspase-1, and the IC50 is <50 nM.

The test system of data set [2] is Human monocyte cell line THP-1. The data set can be described thus: Detection of THP-1 cell pyroptosis (Caspase-Glo 1 Inflammasome Assay). The following applies: 20 nM PMA 48 h, 1 μg/mL LPS, compound 3 h. The class given is cell-based. In outline:
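Differentiated with 20 nM PMA for 48 h (50,000 cells/well), then given serum-free medium with 1 μg/mL LPS and compound in a 10-point, 3-fold series from 10 μM for 3 h at 37 °C. Caspase-1 activity read with Caspase-Glo 1 Inflammasome kit; IC50 calculated.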

Data set [3] in a line: Pharmacokinetic analysis of compounds in rats. The format is in vivo, SD rats. The following applies: for F %: po 10 mg/kg vs iv 1 mg/kg. How it is done:
Healthy adult SD rats weighing 180-220 g were fasted (free access to water) overnight and divided into tail vein administration group and intragastric administration group. The tail vein administration group was subjected to blood collection of 0.1 mL from orbital venous plexus before the administration and 5 min, 15 min, 0.5 h, 1 h, 2 h, 4 h, 8 h, 12 h and 24 h after the administration, and plasma was separated out by centrifugation at 4° C. for 5 min and stored at −20° C. for test. The intragastric administration group was subjected to blood collection of 0.1 mL from orbital venous plexus before the administration and 5 min, 15 min, 0.5 h, 1 h, 2 h, 4 h, 8 h, 12 h and 24 h after the administration, and the subsequent treatment procedures were the same as those of the tail vein injection group. The concentration of parent drug in the plasma was determined by LC-MS/MS.

Setting [4] is: Homo sapiens, THP-1, THP-1 pyroptosis.
The mark [5] stands for this setting: SD rats, iv (tail vein), 1 mg/kg, plasma.
[6] abbreviates: SD rats, po (intragastric), 10 mg/kg, plasma.

Regarding `Cc1oc(S(=O)(=O)NC(=O)Nc2c([C@@H](C)C3CC3)ccc3c2CCC3)cc1C(C)(C)O` [Compound 23, (S)-N-((5-(1-cyclopropylethyl)-2,3-dihydro-1H-inden-4-yl)carbamoyl)-4-(2-hydroxypropan-2-yl)-5-methylfuran-2-sulfonamide], the IC50 (as a rule, the concentration that gives 50% inhibition) in data set [1] (PBMC) is 5 nM; in data set [2] (setting [4]), 100 to 500 nM.

With `C[C@H](c1cc(F)c2c(c1NC(=O)NS(=O)(=O)c1cc(C(C)(C)O)co1)CCC2)C1CC1` [Compound 43, (S)-N-((5-(1-cyclopropylethyl)-7-fluoro-2,3-dihydro-1H-inden-4-yl)carbamoyl)-4-(2-hydroxypropan-2-yl)furan-2-sulfonamide], the IC50 in data set [1] (PBMC) was 11.6 nM; in data set [2] (setting [4]), 500 to 1000 nM.

For the compound `C[C@H](c1ccc2c(c1NC(=O)NS(=O)(=O)c1cc(C(C)(C)O)co1)CCC2)C1CC1` [Compound 7, (S)-N-((5-(1-cyclopropylethyl)-2,3-dihydro-1H-inden-4-yl)carbamoyl)-4-(2-hydroxypropan-2-yl)furan-2-sulfonamide], the IC50 was 41.1 nM in data set [1] (PBMC) and at most 100 nM in data set [2] (setting [4]).

For the compound “(RS, RC)- and (SS, RC)-N-((5-(1-cyclopropylethyl)-2,3-dihydro-1H-inden-4-yl-7-d)carbamoyl)-4-(2-hydroxypropan-2-yl)furan-2-sulfonimidamide [Compound 31-2]”, the IC50 in data set [1] is 25 nM; in data set [2] (THP-1 pyroptosis), at most 100 nM.

For `C[C@H](c1cc(F)c2c(c1NC(=O)N[S@@](=N)(=O)c1cc(C(C)(C)O)co1)CCC2)C1CC1` (single isomer, unassigned) [Compound 44-2], in data set [3] (SD, rat, in vivo, iv, 1 mg/kg), the AUC (in general, concentration integrated over time) stood at 1620 ng·h/mL; the Vd – broadly, a proportionality between amount in the body and measured concentration, not a real space – is 0.537 L/kg; the clearance – broadly, the rate of elimination divided by the concentration – amounted to 10.5 mL/min/kg; the half-life (in general, how long it takes for the measured level to halve) is 0.93 h. For the same compound, the bioavailability (commonly dose-corrected exposure relative to a reference, in per cent) in data set [3] (SD, rat, in vivo, po) came to 89.1%. Besides, in data set [3] (SD, rat, in vivo, po, 10 mg/kg), the AUC came out at 14500 ng·h/mL; the Cmax – broadly, the peak of the concentration-time curve – was determined as 6380 ng/mL; the half-life is 2.4 h. The IC50 in data set [1] (PBMC) was 16.3 nM. Further, in data set [2] (setting [4]), the IC50 was at most 100 nM.

As for `[2H]c1cc([C@H](C)C2CC2)c(NC(=O)NS(=O)(=O)c2cc(C(C)(C)O)co2)c2c1CCC2` [Compound 29, (R)-N-((5-(1-cyclopropylethyl)-2,3-dihydro-1H-inden-4-yl-7-d)carbamoyl)-4-(2-hydroxypropan-2-yl)furan-2-sulfonamide], the values for the 50% inhibitory concentration (IC50) in data set [1] (PBMC) and in data set [2] (setting [4]) were 18.5 nM and 100 to 500 nM, respectively.

As for `Cc1oc(S(=N)(=O)NC(=O)Nc2c(C(C)C3CC3)ccc3c2CCC3)cc1C(C)(C)O` (single isomer, unassigned) [Compound 24-2, RS- and SS-N-((5-(1-cyclopropylethyl)-2,3-dihydro-1H-inden-4-yl)carbamoyl)-4-(2-hydroxypropan-2-yl)-5-methylfuran-2-sulfonimidamide], the results for the IC50 in data set [1] and in data set [2] (THP-1 pyroptosis) were 17.4 nM and at most 100 nM, respectively.

As for `C[C@@H](c1cc(F)c2c(c1NC(=O)N[S@@](=N)(=O)c1cc(C(C)(C)O)co1)CCC2)C1CC1` (mixture of isomers) [Compound 42-1, (R)- and (S)-N-((5-((R)-1-cyclopropylethyl)-7-fluoro-2,3-dihydro-1H-inden-4-yl)carbamoyl)-4-(2-hydroxypropan-2-yl)furan-2-sulfonimidamide], the IC50 in data set [1] (PBMC) is 18.5 nM; in data set [2] (setting [4]), 100 to 500 nM.

Turning to `CC(c1cc(F)c2c(c1NC(=O)NS(=O)(=O)c1cc(C(C)(C)O)co1)CCC2)C1CC1` (stereo not shown) [Compound 9, N-((5-(1-cyclopropylethyl)-7-fluoro-2,3-dihydro-1H-inden-4-yl)carbamoyl)-4-(2-hydroxypropan-2-yl)furan-2-sulfonamide], the IC50 in data set [1] (PBMC) came out at 25.6 nM.

For `CC(c1ccc2c(c1NC(=O)NS(=N)(=O)c1cc(C(C)(C)O)co1)CC2)C1CC1` (racemic) [Compound 36-1, (RS, SC)- and (SS, SC)-N-((3-(1-cyclopropylethyl)bicyclo[4.2.0]octa-1(6),2,4-trien-2-yl)carbamoyl)-4-(2-hydroxypropan-2-yl)furan-2-sulfonimidamide], in data set [3] (setting [5]), the “AUC” value was 14614 ng·h/mL; the “Cl” value is given as 1.3 mL/min/kg; the Vss – broadly, a proportionality between amount in the body and measured concentration, not a real space – stood at 0.22 L/kg; the “t1/2” value stood at 3.9 h. Moreover, the F % in data set [3] (SD rats) came to 98.5%. In data set [3] (setting [6]), the “AUC” value was 143938 ng·h/mL, the “Cmax” value is on record as 33467 ng/mL and the “t1/2” value is 2.9 h. In data set [2] (THP-1 pyroptosis), this compound displayed an IC50 of at most 100 nM.

`C[C@@H](c1ccc2c(c1NC(=O)NS(=N)(=O)c1cc(C(C)(C)O)co1)CCC2)C1CCC1` (mixture of isomers) [Compound 80-2, (RS)- and (SS)-N-((5-((R)-1-cyclobutylethyl)-2,3-dihydro-1H-inden-4-yl)carbamoyl)-4-(2-hydroxypropan-2-yl)furan-2-sulfonimidamide]: the IC50 in data set [1] is 14.8 nM; in data set [2] (THP-1 pyroptosis) it was at most 100 nM.

As for `C[C@@H](c1ccc2c(c1NC(=O)NS(=N)(=O)c1cc(C(C)(C)O)co1)CCC2)C1CC1` (mixture of isomers) [Compound 6-2, (RS, RC)- and (SS, RC)-N-((5-(-1-cyclopropylethyl)-2,3-dihydro-1H-inden-4-yl)carbamoyl)-4-(2-hydroxypropan-2-yl)furan-2-sulfonimidamide], in data set [3] (setting [5]), the “AUC” value was determined as 1657 ng·h/mL, the “Cl” value is 10.2 mL/min/kg, the “Vss” value was 0.781 L/kg and the “t1/2” value was found to be 1.5 h. Also, in data set [3] (SD rats), the F % came to 65.9%. Besides, in data set [3] (setting [6]), the “AUC” value came out at 10920 ng·h/mL, the “Cmax” value stood at 4073 ng/mL and the “t1/2” value was determined as 2.8 h. This compound showed an IC50 in data set [2] (THP-1 pyroptosis) of 100 to 500 nM.

In the case of `C[C@@H](c1ccc2c(c1NC(=O)NS(=O)(=O)c1cnc(C(C)(C)O)s1)CCC2)C1CC1` [Compound 87, (R)-N-((5-(1-cyclopropylethyl)-2,3-dihydro-1H-inden-4-yl)carbamoyl)-2-(2-hydroxypropan-2-yl)thiazole-5-sulfonamide], the IC50 in data set [1] (PBMC) was 40.4 nM; in data set [2] (setting [4]), at most 100 nM.

With `C[C@@H](c1cc(F)c2c(c1NC(=O)NS(=O)(=O)c1cc(C(C)(C)O)co1)CCC2)C1CC1` [Compound 41, (R)-N-((5-(1-cyclopropylethyl)-7-fluoro-2,3-dihydro-1H-inden-4-yl)carbamoyl)-4-(2-hydroxypropan-2-yl)furan-2-sulfonamide], the IC50 in data set [1] (PBMC) was 5 nM; in data set [2] (setting [4]), at most 100 nM.

For the compound `[2H]c1cc([C@@H](C)C2CC2)c(NC(=O)NS(=N)(=O)c2cc(C(C)(C)O)co2)c2c1CCC2` (single isomer, unassigned) [Compound 32-2, (RS, SC)- and (SS, SC)-N-((5-(1-cyclopropylethyl)-2,3-dihydro-1H-inden-4-yl-7-d)carbamoyl)-4-(2-hydroxypropan-2-yl)furan-2-sulfonimidamide], the IC50 in data set [1] (PBMC) is 28.9 nM; in data set [2] (THP-1 pyroptosis), at most 100 nM.

Regarding `CC(C)(O)c1coc(S(=N)(=O)NC(=O)Nc2c(CC3CCC3)ccc3c2CCC3)c1` (single isomer, unassigned) [Compound 18-1, RS- and SS-N-((5-(cyclobutylmethyl)-2,3-dihydro-1H-inden-4-yl)carbamoyl)-4-(2-hydroxypropan-2-yl)furan-2-sulfonimidamide], in data set [3] (rat, in vivo, iv, 1 mg/kg), the “AUC” value worked out at 2226 ng·h/mL, the “Cl” value was 7.59 mL/min/kg, the “Vss” value turned out to be 0.845 L/kg and the “t1/2” value is 2.2 h. In addition, in data set [3] (rat, in vivo, po, 10 mg/kg), the “AUC” value stood at 20153 ng·h/mL, the “Cmax” value is on record as 9867 ng/mL and the “t1/2” value was 2.9 h. In data set [2] (THP-1 pyroptosis), this compound registered a half-maximal inhibitory concentration (IC50) of 500 to 1000 nM.

Take “RS- and SS-N-((5-(cyclobutylmethyl)-2,3-dihydro-1H-inden-4-yl-7-d)carbamoyl)-4-(2-hydroxypropan-2-yl)furan-2-sulfonimidamide [Compound 39-1]”: the results for the IC50 in data set [1] and in data set [2] (THP-1 pyroptosis) were 31.7 nM and at most 100 nM, respectively.
